# In PMC12274840 (The Journal of Biological Chemistry, 2025):
# Read-outs that look alike come from different tables or passages of the source.
# Columns and labels:
# [1] = test system: E. coli KA797 cells carrying pUK21 with BlaC WT (Tat); test: microbe, parasite or virus in culture; assay type: cell-based; conditions: Escherichia coli, antibiotic alone
# [2] = test system: E. coli KA797 cells carrying pUK21 with KPC-2 (Tat); test: microbe, parasite or virus in culture; assay type: cell-based; conditions: Escherichia coli, antibiotic alone
# [3] = test system: E. coli KA797 cells carrying pUK21 with NmcA (pelB/Sec); test: microbe, parasite or virus in culture; assay type: cell-based; conditions: Escherichia coli, antibiotic alone
# [4] = test system: E. coli KA797 cells carrying pUK21 with TEM-1 WT (Sec); test: microbe, parasite or virus in culture; assay type: cell-based; conditions: Escherichia coli, antibiotic alone
# [5] = test system: E. coli KA797 cells carrying pUK21 with TEM-1 Y105R; assay type: cell-based, Escherichia coli; conditions: antibiotic alone
# BlaC WT = target: T1, BlaC WT (Mycobacterium tuberculosis, UniProt P9WKD3); assay type: biochemical; conditions: pH 6.4
# T1 construct: correspond to residue numbers 41-307 of BlaC (Uniprot entry P9WKD3-1); His tag with TEV cleavage site (N); made in house; host or cells: E. coli BL21 (DE3) pLysS
# CTX-M-14 Y105G = target: T2, CTX-M-14 Y105G (Escherichia coli, UniProt Q9L5C7, Y108G); assay type: biochemical
# T2 construct: 29 to 291 of CTX-M-14 (Q9L5C7); His tag with TEV cleavage site (N); made in house; host or cells: E. coli BL21 (DE3) pLysS
# TEM-1 Y105G = TEM-1 Y105G (Escherichia coli, UniProt P62593, Y103G); test: Steady-state kinetics of substrate hydrolysis, TEM-1 Y105G; assay type: biochemical; conditions: phosphate buffer pH 6.4, 25 °C
# [6] = test system: E. coli KA797 cells carrying NmcA position 105 library; assay type: cell-based
# [7] = test system: E. coli KA797 cells carrying TEM-1 position 105 library; assay type: cell-based; conditions: for Fi carbenicillin AVG: average of replicates
smiles,measurement,setting,value
CC1(C)S[C@@H]2[C@H](NC(=O)C(C(=O)O)c3ccccc3)C(=O)N2[C@H]1C(=O)O (stereo partly drawn) [carbenicillin],MIC,[1],800 µg/mL
same,MIC,[2],400 µg/mL
same,MIC,[3],200 µg/mL
same,MIC,[4],32000 µg/mL
same,MIC,[5],4000 µg/mL
same,kcat,BlaC WT,0.51 ± 00.2 s⁻¹
same,Km,BlaC WT; read-out: KM^app,5.5 ± 0.7 µM
same,kcat,"CTX-M-14 Y105G; phosphate buffer pH 6.4, 25 °C",11 ± 2 s⁻¹
same,Km,"CTX-M-14 Y105G; read-out: KM^app, phosphate buffer pH 6.4, 25 °C",228 ± 61 µM
same,kcat,TEM-1 Y105G,59.0 ± 0.3 s⁻¹
same,Fi AVG (average fitness of replicates),[6]; NmcA AA 105 Ala,-0.798
same,Significance of average fitness,[6]; NmcA AA 105 Ala,-
same,Fi AVG (average fitness of replicates),[6]; NmcA AA 105 Arg,-0.438
same,Significance of average fitness,[6]; NmcA AA 105 Arg,-
same,Fi AVG (average fitness of replicates),[6]; NmcA AA 105 Asn,-0.329
same,Significance of average fitness,[6]; NmcA AA 105 Asn,-
same,Fi AVG (average fitness of replicates),[6]; NmcA AA 105 Asp,-0.908
same,Significance of average fitness,[6]; NmcA AA 105 Asp,-
same,Fi AVG (average fitness of replicates),[6]; NmcA AA 105 Cys,-0.727
same,Significance of average fitness,[6]; NmcA AA 105 Cys,-
same,Fi AVG (average fitness of replicates),[6]; NmcA AA 105 Gln,-0.466
same,Significance of average fitness,[6]; NmcA AA 105 Gln,-
same,Fi AVG (average fitness of replicates),[6]; NmcA AA 105 Glu,-0.772
same,Significance of average fitness,[6]; NmcA AA 105 Glu,-
same,Fi AVG (average fitness of replicates),[6]; NmcA AA 105 Gly,-0.274
same,Significance of average fitness,[6]; NmcA AA 105 Gly,-
same,Fi AVG (average fitness of replicates),[6]; NmcA AA 105 His,0.000
same,Fi AVG (average fitness of replicates),[6]; NmcA AA 105 Ile,-0.761
same,Significance of average fitness,[6]; NmcA AA 105 Ile,-
same,Fi AVG (average fitness of replicates),[6]; NmcA AA 105 Leu,-0.728
same,Significance of average fitness,[6]; NmcA AA 105 Leu,-
same,Fi AVG (average fitness of replicates),[6]; NmcA AA 105 Lys,-0.642
same,Significance of average fitness,[6]; NmcA AA 105 Lys,-
same,Fi AVG (average fitness of replicates),[6]; NmcA AA 105 Met,-0.481
same,Significance of average fitness,[6]; NmcA AA 105 Met,-
same,Fi AVG (average fitness of replicates),[6]; NmcA AA 105 Phe,-0.458
same,Significance of average fitness,[6]; NmcA AA 105 Phe,-
same,Fi AVG (average fitness of replicates),[6]; NmcA AA 105 Pro,-0.671
same,Significance of average fitness,[6]; NmcA AA 105 Pro,-
same,Fi AVG (average fitness of replicates),[6]; NmcA AA 105 Ser,-0.589
same,Significance of average fitness,[6]; NmcA AA 105 Ser,-
same,Fi AVG (average fitness of replicates),[6]; NmcA AA 105 Thr,-0.842
same,Significance of average fitness,[6]; NmcA AA 105 Thr,-
same,Fi AVG (average fitness of replicates),[6]; NmcA AA 105 Trp,-0.118
same,Significance of average fitness,[6]; NmcA AA 105 Trp,-
same,Fi AVG (average fitness of replicates),[6]; NmcA AA 105 Tyr,-0.304
same,Significance of average fitness,[6]; NmcA AA 105 Tyr,-
same,Fi AVG (average fitness of replicates),[6]; NmcA AA 105 Val,-0.711
same,Significance of average fitness,[6]; NmcA AA 105 Val,-
same,WT abs Fi 1 (absolute fitness),"[6]; NmcA WT, replicate 1",0.462
same,WT abs Fi 2 (absolute fitness),"[6]; NmcA WT, replicate 2",0.578
same,Significance (Average fitnes carbenicillin),[7]; AA 105 Ala,-
same,Fi carbenicillin AVG,[7]; AA 105 Ala,-0.528
same,Fi CAR 1,"[7]; AA 105 Ala, replicate 1",-0.503
same,Fi CAR 2,"[7]; AA 105 Ala, replicate 2",-0.553
same,Significance (Average fitnes carbenicillin),[7]; AA 105 Arg,-
same,Fi carbenicillin AVG,[7]; AA 105 Arg,-0.371
same,Fi CAR 1,"[7]; AA 105 Arg, replicate 1",-0.360
same,Fi CAR 2,"[7]; AA 105 Arg, replicate 2",-0.382
same,Fi carbenicillin AVG,[7]; AA 105 Asn,-0.119
same,Fi CAR 1,"[7]; AA 105 Asn, replicate 1",-0.088
same,Fi CAR 2,"[7]; AA 105 Asn, replicate 2",-0.150
same,Significance (Average fitnes carbenicillin),[7]; AA 105 Asp,-
same,Fi carbenicillin AVG,[7]; AA 105 Asp,-1.040
same,Fi CAR 1,"[7]; AA 105 Asp, replicate 1",-1.009
same,Fi CAR 2,"[7]; AA 105 Asp, replicate 2",-1.070
same,Significance (Average fitnes carbenicillin),[7]; AA 105 Cys,-
same,Fi carbenicillin AVG,[7]; AA 105 Cys,-0.639
same,Fi CAR 1,"[7]; AA 105 Cys, replicate 1",-0.611
same,Fi CAR 2,"[7]; AA 105 Cys, replicate 2",-0.666
same,Significance (Average fitnes carbenicillin),[7]; AA 105 Gln,-
same,Fi carbenicillin AVG,[7]; AA 105 Gln,-0.400
same,Fi CAR 1,"[7]; AA 105 Gln, replicate 1",-0.384
same,Fi CAR 2,"[7]; AA 105 Gln, replicate 2",-0.417
same,Significance (Average fitnes carbenicillin),[7]; AA 105 Glu,-
same,Fi carbenicillin AVG,[7]; AA 105 Glu,-0.893
same,Fi CAR 1,"[7]; AA 105 Glu, replicate 1",-0.890
same,Fi CAR 2,"[7]; AA 105 Glu, replicate 2",-0.895
same,Fi carbenicillin AVG,[7]; AA 105 Gly,-0.181
same,Fi CAR 1,"[7]; AA 105 Gly, replicate 1",-0.158
same,Fi CAR 2,"[7]; AA 105 Gly, replicate 2",-0.204
same,Fi carbenicillin AVG,[7]; AA 105 His,-0.182
same,Fi CAR 1,"[7]; AA 105 His, replicate 1",-0.177
same,Fi CAR 2,"[7]; AA 105 His, replicate 2",-0.187
same,Significance (Average fitnes carbenicillin),[7]; AA 105 Ile,-
same,Fi carbenicillin AVG,[7]; AA 105 Ile,-0.707
same,Fi CAR 1,"[7]; AA 105 Ile, replicate 1",-0.683
same,Fi CAR 2,"[7]; AA 105 Ile, replicate 2",-0.731
same,Significance (Average fitnes carbenicillin),[7]; AA 105 Leu,-
same,Fi carbenicillin AVG,[7]; AA 105 Leu,-0.631
same,Fi CAR 1,"[7]; AA 105 Leu, replicate 1",-0.615
same,Fi CAR 2,"[7]; AA 105 Leu, replicate 2",-0.647
same,Significance (Average fitnes carbenicillin),[7]; AA 105 Lys,-
same,Fi carbenicillin AVG,[7]; AA 105 Lys,-0.496
same,Fi CAR 1,"[7]; AA 105 Lys, replicate 1",-0.486
same,Fi CAR 2,"[7]; AA 105 Lys, replicate 2",-0.506
same,Significance (Average fitnes carbenicillin),[7]; AA 105 Met,-
same,Fi carbenicillin AVG,[7]; AA 105 Met,-0.369
same,Fi CAR 1,"[7]; AA 105 Met, replicate 1",-0.357
same,Fi CAR 2,"[7]; AA 105 Met, replicate 2",-0.382
same,Fi carbenicillin AVG,[7]; AA 105 Phe,-0.152
same,Fi CAR 1,"[7]; AA 105 Phe, replicate 1",-0.133
same,Fi CAR 2,"[7]; AA 105 Phe, replicate 2",-0.171
same,Significance (Average fitnes carbenicillin),[7]; AA 105 Pro,-
same,Fi carbenicillin AVG,[7]; AA 105 Pro,-0.936
same,Fi CAR 1,"[7]; AA 105 Pro, replicate 1",-0.929
same,Fi CAR 2,"[7]; AA 105 Pro, replicate 2",-0.943
same,Significance (Average fitnes carbenicillin),[7]; AA 105 Ser,-
same,Fi carbenicillin AVG,[7]; AA 105 Ser,-0.354
same,Fi CAR 1,"[7]; AA 105 Ser, replicate 1",-0.356
same,Fi CAR 2,"[7]; AA 105 Ser, replicate 2",-0.352
same,Significance (Average fitnes carbenicillin),[7]; AA 105 Thr,-
same,Fi carbenicillin AVG,[7]; AA 105 Thr,-0.562
same,Fi CAR 1,"[7]; AA 105 Thr, replicate 1",-0.532
same,Fi carbenicillin AVG,[7]; AA 105 Trp,-0.027
same,Fi CAR 1,"[7]; AA 105 Trp, replicate 1",-0.012
same,Fi CAR 2,"[7]; AA 105 Trp, replicate 2",-0.043
same,Fi carbenicillin AVG,[7]; AA 105 Tyr,0.000
same,Fi CAR 1,"[7]; AA 105 Tyr, replicate 1",0.000
same,Fi CAR 2,"[7]; AA 105 Tyr, replicate 2",0.000
same,Significance (Average fitnes carbenicillin),[7]; AA 105 Val,-
same,Fi carbenicillin AVG,[7]; AA 105 Val,-0.544
same,Fi CAR 1,"[7]; AA 105 Val, replicate 1",-0.508
same,Fi CAR 2,"[7]; AA 105 Val, replicate 2",-0.579
same,WT abs Fi 1,"[7]; absolute fitness of TEM-1 WT, carbenicillin, replicate 1",0.724
same,WT abs Fi 2,"[7]; absolute fitness of TEM-1 WT, carbenicillin, replicate 2",0.359
